According to the NIST ThermoML archive (doi:10.1021/je800357c):

Assay: mn = molality of the nth substance listed, in mol/kg
Settings: 101 kPa, Liquid

O=C(O)/C=C\C(=O)O [cis-1,4-butenedioic acid] + O
mass density [kg/m3]
Settings | 288.15 K | 293.15 K | 298.15 K | 303.15 K | 308.15 K | 313.15 K | 318.15 K | 323.15 K | 328.15 K | 333.15 K
m1 = 0.09831 | 1003.24 | 1002.29 | 1001.04 | 999.59 | 997.91 | 996.07 | 994.03 | 991.81 | 989.41 | 986.88
m1 = 0.4902 | 1018.5 | 1017.26 | 1015.79 | 1014.1 | 1012.25 | 1010.18 | 1007.98 | 1005.58 | 1003.01 | 1000.36
m1 = 0.979 | 1035.99 | 1034.47 | 1032.74 | 1030.81 | 1028.74 | 1026.46 | 1024.06 | 1021.47 | 1018.75 | 1015.92
